Results taken from patent US20230019491A1, “PYRIMIDINE TBK/IKKe INHIBITOR COMPOUNDS AND USES THEREOF” (Merck Patent GmbH, priority 2017, published 2023).

How the values were obtained:
TBK1 = biological target: T1, TBK1 (Homo sapiens, UniProt Q9UHD2); assay: TBK biochemical assay; conditions: 10 point 1:4 dose response, 30 uM top concentration, 90 min at 25° C., LabChip EZ Reader II; read-out: TBK1_IC50
T1 sequence (Q9UHD2 1-729): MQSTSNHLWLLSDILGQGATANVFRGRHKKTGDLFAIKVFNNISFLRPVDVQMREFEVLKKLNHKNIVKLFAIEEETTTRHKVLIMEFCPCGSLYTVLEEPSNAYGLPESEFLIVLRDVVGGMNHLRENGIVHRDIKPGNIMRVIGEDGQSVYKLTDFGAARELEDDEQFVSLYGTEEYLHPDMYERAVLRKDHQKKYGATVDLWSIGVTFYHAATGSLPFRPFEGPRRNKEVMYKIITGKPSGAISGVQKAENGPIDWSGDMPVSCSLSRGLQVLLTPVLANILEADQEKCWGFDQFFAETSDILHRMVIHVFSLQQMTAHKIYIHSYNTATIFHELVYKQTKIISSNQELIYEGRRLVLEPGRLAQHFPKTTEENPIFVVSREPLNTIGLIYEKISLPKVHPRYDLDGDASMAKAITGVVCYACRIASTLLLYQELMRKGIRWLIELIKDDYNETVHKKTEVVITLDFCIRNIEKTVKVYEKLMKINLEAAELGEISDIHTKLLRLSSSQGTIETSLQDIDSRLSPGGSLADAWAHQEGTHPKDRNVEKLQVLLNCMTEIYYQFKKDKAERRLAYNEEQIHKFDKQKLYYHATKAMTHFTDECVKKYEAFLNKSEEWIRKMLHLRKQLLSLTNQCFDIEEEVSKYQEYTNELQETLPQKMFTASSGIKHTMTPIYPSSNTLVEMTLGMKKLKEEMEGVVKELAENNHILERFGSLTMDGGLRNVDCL
Method in brief: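 Substrate and product were separated and quantified by microfluidic mobility-shift read (LabChip). 10 uM staurosporine served as the full-inhibition control, and the reference compound was tested from 1 uM final.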

IKKε = biological target: T2, IKKε (Homo sapiens, UniProt Q14164); assay: IKKε biochemical assay; conditions: 10 point 1:4 dose response, 30 uM top concentration, 90 min at 25° C., LabChip EZ Reader II; read-out: IKKε_IC50
T2 sequence (Q14164 1-716): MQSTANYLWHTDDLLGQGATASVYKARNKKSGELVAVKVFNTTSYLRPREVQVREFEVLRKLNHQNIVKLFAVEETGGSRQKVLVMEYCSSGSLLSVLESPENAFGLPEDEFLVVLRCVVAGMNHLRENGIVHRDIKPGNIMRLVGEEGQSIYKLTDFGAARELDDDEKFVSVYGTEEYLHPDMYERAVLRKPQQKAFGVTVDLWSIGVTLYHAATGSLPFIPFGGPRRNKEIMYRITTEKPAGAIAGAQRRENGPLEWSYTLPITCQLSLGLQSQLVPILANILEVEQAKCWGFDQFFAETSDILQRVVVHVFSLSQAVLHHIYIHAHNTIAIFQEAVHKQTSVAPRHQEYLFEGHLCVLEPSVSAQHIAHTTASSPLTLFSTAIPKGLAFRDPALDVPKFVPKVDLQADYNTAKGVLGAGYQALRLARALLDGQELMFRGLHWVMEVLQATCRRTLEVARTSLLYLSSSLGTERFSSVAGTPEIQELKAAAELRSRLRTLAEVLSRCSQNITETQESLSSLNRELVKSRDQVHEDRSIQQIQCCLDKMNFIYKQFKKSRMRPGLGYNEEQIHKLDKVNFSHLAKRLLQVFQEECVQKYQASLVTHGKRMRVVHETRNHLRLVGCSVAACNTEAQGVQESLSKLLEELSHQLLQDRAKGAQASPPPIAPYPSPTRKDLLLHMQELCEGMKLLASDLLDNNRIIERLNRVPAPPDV
Method in brief: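 Compounds in 1% DMSO final were incubated with IKKε enzyme and substrate at 25° C. for 90 min, then stopped. Substrate and product peaks were resolved by LabChip EZ Reader II mobility-shift read-out. Staurosporine at 10 uM final served as the full-inhibition control.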

Row | IC50 (TBK1) | IC50 (IKKε) | Compound
1 | < 100 nM | < 100 nM | COc1cc(Nc2nccc(-c3ccc(OC4CCN(C(=O)[C@H](C)O)CC4(F)F)c(C#N)c3)n2)ncc1N1CCN(C2COC2)CC1 (stereo partly drawn) [Example 322, 2-([33-difluoro-1-[(2S)-2-hydroxypropanoyl]piperidin-4-yl]oxy)-5-[2-([4-methoxy-5-[4-(oxetan-3-yl)piperazin-1-yl]pyridin-2-yl]amino)pyrimidin-4-yl]benzonitrile]
2 | < 100 nM | < 100 nM | COc1cc(Nc2nccc(-c3ccc(OC4CCN(C(=O)[C@H](C)O)CC4(F)F)c(C#N)c3)n2)cnc1N1CCN(C2COC2)CC1 (stereo partly drawn) [Example 323, 2-([3,3-difluoro-1-[(2S)-2-hydroxypropanoyl]piperidin-4-yl]oxy)-5-[2-([5-methoxy-6-[4-(oxetan-3-yl)piperazin-1-yl]pyridin-3-yl]amino)pyrimidin-4-yl]benzonitrile]
3 | < 100 nM | < 100 nM | COc1nc(Nc2nccc(-c3ccc(OC4CCN(C(=O)[C@H](C)O)CC4(F)F)c(C#N)c3)n2)ccc1C(=O)N(C)C (stereo partly drawn) [Example 324, 6-([4-[3-cyano-4-([3,3-difluoro-1-[(2S)-2-hydroxypropanoyl]piperidin-4-yl]oxy)phenyl]pyrimidin-2-yl]amino)-2-methoxy-N,N-dimethylpyridine-3-carboxamide]
4 | < 100 nM | < 100 nM | COc1nc(Nc2nccc(-c3ccc(OC4CCN(C(=O)[C@@H](C)O)CC4(F)F)c(C#N)c3)n2)ccc1C(=O)N(C)C (stereo partly drawn) [Example 325, 6-([4-[3-cyano-4-([3,3-difluoro-1-[(2R)-2-hydroxypropanoyl]piperidin-4-yl]oxy)phenyl]pyrimidin-2-yl]amino)-2-methoxy-N,N-dimethylpyridine-3-carboxamide]
5 | < 100 nM | < 100 nM | COc1cc(Nc2nccc(-c3ccc(OC4CCN(C(=O)CO)CC4(F)F)c(C#N)c3)n2)ccn1 (stereo not drawn) [Example 326, 2-[[3,3-difluoro-1-(2-hydroxyacetyl)piperidin-4-yl]oxy]-5-[2-[(2-methoxypyridin-4-yl)amino]pyrimidin-4-yl]benzonitrile]
6 | < 100 nM | < 100 nM | COc1nc(Nc2nccc(-c3ccc(OC4CCN(C(=O)C(C)O)CC4(F)F)c(C#N)c3)n2)ccc1C1CCN(C2COC2)CC1 (stereo not drawn) [Example 329, 2-[[33-difluoro-1-(2-hydroxypropanoyl)piperidin-4-yl]oxy]-5-[2-([6-methoxy-5-[1-(oxetan-3-yl)piperidin-4-yl]pyridin-2-yl]amino)pyrimidin-4-yl]benzonitrile]
7 | < 100 nM | < 100 nM | COc1nc(Nc2nccc(-c3ccc(OC4CCN(C(=O)[C@@H](C)O)CC4(F)F)c(C#N)c3)n2)ccc1C1CCN(C2COC2)CC1 (stereo partly drawn) [Example 330, 2-([3,3-difluoro-1-[(2R)-2-hydroxypropanoyl]piperidin-4-yl]oxy)-5-[2-([6-methoxy-5-[1-(oxetan-3-yl)piperidin-4-yl]pyridin-2-yl]amino)pyrimidin-4-yl]benzonitrile]
8 | < 100 nM | 100 to 1000 nM | COc1nc(Nc2nccc(-c3ccc(O[C@@H]4CCN(C(=O)[C@H](C)O)C[C@@H]4F)c(C#N)c3)n2)ccc1N1CCN(C2COC2)CC1 [Example 331, 2-[[(3S,4R)-3-fluoro-1-[(2S)-2-hydroxypropanoyl]piperidin-4-yl]oxy]-5-[2-([6-methoxy-5-[4-(oxetan-3-yl)piperazin-1-yl]pyridin-2-yl]amino)pyrimidin-4-yl]benzonitrile]

Row | Compound | IC50 (TBK1) | IC50 (IKKε)
9 | tert-butyl 4-[2-cyano-5-methyl-4-[2-([4-[4-(oxetan-3-yl)piperazin-1-yl]phenyl]amino)pyrimidin-4-yl]phenoxy]-3,3-difluoropiperidine-1-carboxylate [Example 308] | < 100 nM | < 100 nM
